Values of other authors as cited in patent US12336993B2, “Therapeutic benefit of suboptimally administered chemical compounds” (priority 2013, dated 2025).

Key:
[1] = biological target: glycogen synthase kinase-33 (GSK-30) (Homo sapiens, UniProt P49841)
[2] = tested on: chronic lymphocytic leukemia; settings: literature reports (Kennedy & Theologides 1961; Kennedy et al. 1999)
Hodgkin's lymphoma = settings: literature reports (Gold et al. 1970; Kennedy et al. 1999)
non-Hodgkin's lymphoma = settings: literature report (Kennedy et al. 1999)
DNA = settings: guanine-N7 alkylation of DNA

Chain of glycogen synthase kinase-33 (GSK-30) (P49841 whole entry): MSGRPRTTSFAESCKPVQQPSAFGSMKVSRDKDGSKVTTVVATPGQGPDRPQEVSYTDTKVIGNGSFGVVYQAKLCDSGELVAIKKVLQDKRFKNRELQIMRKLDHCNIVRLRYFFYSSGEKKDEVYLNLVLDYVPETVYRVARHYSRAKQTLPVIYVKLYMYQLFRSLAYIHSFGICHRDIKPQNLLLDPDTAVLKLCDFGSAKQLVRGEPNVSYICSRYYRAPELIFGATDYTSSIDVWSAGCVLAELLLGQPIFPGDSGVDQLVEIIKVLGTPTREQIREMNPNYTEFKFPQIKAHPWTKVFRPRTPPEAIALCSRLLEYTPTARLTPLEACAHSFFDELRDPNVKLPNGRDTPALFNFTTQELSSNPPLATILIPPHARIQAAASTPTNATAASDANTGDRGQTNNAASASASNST

concentration at which inhibition of GSK is promoted [1] [nM] | SMILES | activity in chronic lymphocytic leukemia [2] | activity in Hodgkin's lymphoma (Hodgkin's lymphoma) | activity in non-Hodgkin's lymphoma (non-Hodgkin's lymphoma) | sequence preferences to alkylate (DNA)
5 to 50 | CN1C(=O)/C(=C2/C(=O)Nc3ccccc32)c2ccccc21 [meisoindigo] | – | – | – | –
– | O=c1[nH]cc(N(CCCl)CCCl)c(=O)[nH]1 [uracil mustard, 5-[bis(2-chloroethyl)amino]-1H-pyrimidine-2,4-dione] | active | active | active | 5′-YGC-3′
